Results as given in US8334258B2, “Method for induction and enhancement of apoptosis in tumor cells” (Georg-August-Universität Göttingen Stiftung Öffentlichen …, priority 2006, dated 2012).
Square brackets hold non-standard residues; d marks the D form. pGlu = O=C1CC[C@@H](C(=O)O)N1

Tests used:
[1] = tested on: MCF-7 breast cancer cell line; assay: Apoptosis assay, flow cytometric analysis of DNA degradation (propidium iodide); format: cell-based, human; conditions: MCF-7, FIG. 1 (B)
cancer cells = conditions: Gründker et al. 2004; cited from earlier work

Question: For “[D-Lys^6]GnRH-II ([pGlu]HWSH[dK]WYPG-NH2; SMILES NCCCC[C@@H](NC(=O)[C@H](Cc1c[nH]cn1)NC(=O)[C@H](CO)NC(=O)[C@H](Cc1c[nH]c2ccccc12)NC(=O)[C@H](Cc1c[nH]cn1)NC(=O)[C@@H]1CCC(=O)N1)C(=O)N[C@@H](Cc1c[nH]c2ccccc12)C(=O)N[C@@H](Cc1ccc(O)cc1)C(=O)N1CCC[C@H]1C(=O)NCC(N)=O) [GnRH-II agonist]”, which “induction of apoptotic cell death by GnRH-II agonist” value [1] is on record?
Answer: did not induce apoptotic cell death

Question: What about the “antiproliferative effects after GnRH-I receptor knock-out” value (cancer cells) of the same substance?
Answer: still existing
